# Test results from US10132816B2, “Measurement of FGF21 as a biomarker of fructose metabolism” (Beth Israel Deaconess Medical Center, Inc., priority 2013, dated 2018).
# What was measured:
# [1] = fructose: at first pass; cited from earlier work
# circulating FGF21 levels = test: oral fructose load versus oral glucose load, circulating FGF21 in human subjects; type: in vivo; settings: two hours after ingestion of 75 grams of fructose, lean healthy subjects
# Text: FIGS. 2A-2B show plasma FGF21 levels: FIG. 2A) following ingestion of 75 grams glucose (n=8) and FIG. 2B) Plasma FGF21 levels following ingestion of 75 grams fructose in human subjects (n=10).
# To test whether fructose ingestion can acutely regulate circulating FGF21 in human subjects, we compared the effects of administering a 75 gram oral glucose load versus a 75 gram oral fructose load on circulating FGF21 levels in lean healthy subjects. Ingestion of glucose has no effect on FGF21 levels (FIG. 2A and ^14). In contrast, circulating FGF21 levels increase ˜4-fold two hours after ingestion of 75 grams of fructose (FIG. 2B). Thus oral fructose ingestion, but not glucose ingestion acutely and robustly increases circulating FGF21 levels. To our knowledge FGF21 is the only known measurable circulating biomarker that specifically assesses an individual's acute metabolic response to fructose ingestion.
# [2] = tested on: hepatic ChREBP-β, ChREBP transcriptional targets and circulating FGF21; test: mice fed chow, 60% dextrose or 60% fructose diets for 7 weeks: hepatic mRNA expression and circulating FGF21; type: in vivo; settings: 7 weeks of 60% diet
# Text: FIGS. 1A-1C are bar graphs of hepatic mRNA expression (FIG. 1A, 1B) and circulating (FIG. 1C) FGF21 levels in 15-week-old mice fed chow, 60% dextrose, or 60% fructose diets for 7 weeks, sacrificed in the ad lib fed state. * P<0.05 compared to all other groups. n=5-7 per group.
# The FGF21 gene contains a ChREBP binding site in its promoter and exposure of primary hepatocytes to high glucose concentrations increases FGF21 expression in a ChREBP dependent manner^37,38. To determine whether ChREBP might regulate circulating FGF21 levels we fed mice chow, 60% dextrose, or 60% fructose diets. […] Thus, we hypothesized that the increase in circulating FGF21 levels associated with features of the metabolic syndrome might be due to activation of hepatic ChREBP and that fructose consumption might be important for this.
smiles,measurement,setting,value
O=C(CO)[C@@H](O)[C@H](O)[C@H](O)CO [fructose],share of an oral load taken up / extracted by the liver,[1],~100%
same,increase of circulating FGF21 levels,circulating FGF21 levels,~4 fold
same,circulating FGF21 levels,[2],highest levels
same,effect of fructose on hepatic ChREBP-β expression relative to that of dextrose,[2],~3 fold
same,"expression of ChREBP transcriptional targets (Pklr, Fasn, FGF21) in liver",[2],greater increase
same,hepatic expression of ChREBP-β compared to chow,[2]; ad lib fed state,markedly increases
